These results are taken from ChEMBL document CHEMBL1140437, “N-substituted cis-4a-(3-hydroxyphenyl)-8a-methyloctahydroisoquinolines are opioid receptor pure antagonists” (J Med Chem, 2005).

Assay [1] concerns the target Opioid receptors; delta & kappa (Homo sapiens) (UniProt P41145+P41143). The assay can be described thus: Selectivity for cloned human delta opioid receptor over kappa opioid receptor. It is filed as protein assay.
In assay [2] the target is Opioid receptors; mu & kappa (Homo sapiens) (UniProt P41145+P35372). The assay is described as follows: Selectivity for cloned human mu opioid receptor over kappa opioid receptor. It is filed as protein assay.
For assay [3], the target named is Kappa-type opioid receptor (Homo sapiens) (UniProt P41145).
Description: Inhibition of U69,593 stimulated [35S]GTP-gamma-S binding to cloned human kappa opioid receptor
Assay [4] deals with Delta-type opioid receptor (Homo sapiens) (UniProt P41143).
Description: Inhibition of DPDPE stimulated [35S]GTP-gamma-S binding to cloned human delta opioid receptor
Assay [5] has as its target Mu-type opioid receptor (Homo sapiens) (UniProt P35372).
Description: Inhibition of DAMGO stimulated [35S]GTP-gamma-S binding to cloned human mu opioid receptor

Sequence of Opioid receptors; delta & kappa (Homo sapiens) (P41143 whole entry, looked up): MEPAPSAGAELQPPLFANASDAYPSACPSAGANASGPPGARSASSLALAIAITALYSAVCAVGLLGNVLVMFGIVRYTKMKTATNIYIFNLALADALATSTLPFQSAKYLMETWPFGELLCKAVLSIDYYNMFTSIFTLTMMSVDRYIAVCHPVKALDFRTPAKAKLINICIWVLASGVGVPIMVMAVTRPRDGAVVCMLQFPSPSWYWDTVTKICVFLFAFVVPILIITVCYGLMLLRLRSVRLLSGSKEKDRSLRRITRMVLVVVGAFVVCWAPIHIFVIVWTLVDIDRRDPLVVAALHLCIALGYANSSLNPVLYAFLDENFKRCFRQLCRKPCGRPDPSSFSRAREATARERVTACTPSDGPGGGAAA
Sequence of Opioid receptors; delta & kappa (Homo sapiens) (P41145 whole entry, looked up): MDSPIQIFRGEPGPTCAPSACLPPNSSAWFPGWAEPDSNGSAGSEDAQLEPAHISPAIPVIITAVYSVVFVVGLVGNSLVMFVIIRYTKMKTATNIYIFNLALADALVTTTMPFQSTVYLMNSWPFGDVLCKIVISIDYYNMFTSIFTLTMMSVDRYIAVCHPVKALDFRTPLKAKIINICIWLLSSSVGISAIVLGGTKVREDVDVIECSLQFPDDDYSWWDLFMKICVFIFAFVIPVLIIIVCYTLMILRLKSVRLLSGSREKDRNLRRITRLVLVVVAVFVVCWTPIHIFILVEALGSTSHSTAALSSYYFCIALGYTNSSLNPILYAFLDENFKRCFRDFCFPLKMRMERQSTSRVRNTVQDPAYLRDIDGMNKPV
Sequence of Delta-type opioid receptor (Homo sapiens) (P41143 whole entry): as the sequence (P41143 whole entry, looked up) above
Sequence of Opioid receptors; mu & kappa (Homo sapiens) (P35372 whole entry, looked up): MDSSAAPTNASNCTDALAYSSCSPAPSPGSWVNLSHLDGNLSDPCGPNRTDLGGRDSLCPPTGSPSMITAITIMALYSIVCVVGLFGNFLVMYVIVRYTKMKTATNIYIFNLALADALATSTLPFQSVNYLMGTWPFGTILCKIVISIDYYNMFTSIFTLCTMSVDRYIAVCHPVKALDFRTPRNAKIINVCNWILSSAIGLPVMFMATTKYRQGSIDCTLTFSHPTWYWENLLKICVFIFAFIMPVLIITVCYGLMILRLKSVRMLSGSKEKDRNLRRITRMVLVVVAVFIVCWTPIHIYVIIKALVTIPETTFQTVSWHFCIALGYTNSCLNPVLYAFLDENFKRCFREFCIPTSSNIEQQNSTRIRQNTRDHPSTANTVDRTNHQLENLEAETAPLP
Sequence of Opioid receptors; mu & kappa (Homo sapiens) (P41145 whole entry, looked up): as the sequence (P41145 whole entry, looked up) above
Sequence of Mu-type opioid receptor (Homo sapiens) (P35372 whole entry): as the sequence (P35372 whole entry, looked up) above
Sequence of Kappa-type opioid receptor (Homo sapiens) (P41145 whole entry): as the sequence (P41145 whole entry, looked up) above

For the compound `Oc1ccc2c3c1O[C@H]1c4[nH]c5c(c4C[C@@]4(O)[C@@H](C2)N(CC2CC2)CC[C@]314)C[C@@]1(O)[C@H]2Cc3ccc(O)c4c3[C@@]1(CCN2CC1CC1)[C@H]5O4`, the Ratio Ke in assay [1] was determined as 110; in assay [2], 475.
Consider `C[C@]12CC[C@@H](NC(=O)c3cc4ccccc4s3)C[C@@]1(c1cccc(O)c1)CCN(CCCc1ccccc1)C2` (relative stereo), for which the Ratio Ke in assay [1] came out at 2; in assay [2], 25. Also, the Ke in assay [3] is 0.46 nM; in assay [4], 1.01 nM; in assay [5], 11.3 nM.
As for `C[C@H]1CN(CC[C@H](O)C2CCCCC2)CC[C@@]1(C)c1cccc(O)c1`, the Ke in assay [4] amounted to 0.6 nM; in assay [5], 0.1 nM.
For `C[C@]12CCCC[C@@]1(c1cccc(O)c1)CCN(CCCc1ccccc1)C2` (relative stereo), the Ratio Ke in assay [1] was 12; in assay [2] it was 0.8. Besides, the Ke is 1.03 nM in assay [3], 12.4 nM in assay [4] and 0.8 nM in assay [5].
On the same counts, the results for `C[C@]12CC[C@@H](NC(=O)C3(c4ccccc4)CCCC3)C[C@@]1(c1cccc(O)c1)CCN(CCCc1ccccc1)C2` are 3, 0.8, 1.93 nM, 6.46 nM and 1.46 nM.
On the same counts, the results for `CN1CC[C@]2(c3cccc(O)c3)CCCC[C@]2(C)C1` are 141, 29, 3.37 nM, 477 nM and 99.4 nM.
On the same counts, the results for `C[C@]12CC[C@@H](NC(=O)CCN3CCc4ccccc4C3)C[C@@]1(c1cccc(O)c1)CCN(CCCc1ccccc1)C2` (relative stereo) are 21, 45, 0.22 nM, 4.56 nM and 9.82 nM.
Take `C[C@]12CC[C@@H](NC(=O)CCN3CCCCC3)C[C@@]1(c1cccc(O)c1)CCN(CCCc1ccccc1)C2` (relative stereo): the Ratio Ke in assay [1] was 46; in assay [2], 154. Also, the Ke in assay [3] stood at 0.27 nM; in assay [4], 12.3 nM; in assay [5], 41.7 nM.
The corresponding values for `C[C@]12CCCC[C@@]1(c1cccc(O)c1)CCN(CCc1ccccc1)C2` (relative stereo) are 7, 0.3, 2.84 nM, 18.9 nM and 0.84 nM.
